Assay results reported in patent US6355799B1, “Substituted benzene compounds, process for their preparation, and herbicidal and defoliant compositions containing them” (ISK Americas Incorporated, priority 1997, dated 2002).

Assays:
Assay type in all cases: in vivo
[1] = system: redroot pigweed (Amaranthus retroflexus, AMARE); assay: Pre-emerge test, greenhouse herbicide activity screening; conditions: phytotoxicity rating 0-100, 14 days after application
Summary of the method: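 Compounds in acetone were track-sprayed at 15-1000 g ai/ha (187 l/ha) on sandy loam pots: pre-emerge one day after seeding, post-emerge at 2-3 leaf stage with 0.25% v/v non-ionic surfactant. Phytotoxicity was rated 14 days later on a 0 (no damage) to 100 (complete death) scale.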

[2] = system: barnyardgrass (Echinochloa crus-galli, ECHCG); assay: as above; conditions: phytotoxicity rating 0-100, 14 days after application
Summary of the method: (§1)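 Rating: 0–100 visual injury, 14 DAA. Application: acetone, 187 l/ha, 15–1000 g ai/ha, flat-fan track sprayer with nozzle 40–45 cm above soil or canopy. Post-emerge runs used 0.25% v/v surfactant on 2–3 leaf plants.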

[3] = system: green foxtail (Setaria viridis, SETVI); assay: as above; conditions: phytotoxicity rating 0-100, 14 days after application
Summary of the method: as §1

[4] = system: ivyleaf morningglory (Ipomoea hederacea, IPOHE); assay: as above; conditions: phytotoxicity rating 0-100, 14 days after application
Summary of the method: as §1

[5] = system: johnsongrass (Sorghum halepense, SORHA); assay: as above; conditions: phytotoxicity rating 0-100, 14 days after application
Summary of the method: as §1

[6] = system: lambsquarters (Chenopodium album, CHEAL); assay: as above; conditions: phytotoxicity rating 0-100, 14 days after application
Summary of the method: as §1

[7] = system: large crabgrass (Digitaria sanguinalis, DIGSA); assay: as above; conditions: phytotoxicity rating 0-100, 14 days after application
Summary of the method: as §1

[8] = system: sicklepod (Cassia obtusifolia, CASOB); assay: as above; conditions: phytotoxicity rating 0-100, 14 days after application
Summary of the method: as §1

[9] = system: velvetleaf (Abutilon theophrasti, ABUTH); assay: as above; conditions: phytotoxicity rating 0-100, 14 days after application
Summary of the method: as §1

[10] = system: field corn (Zea mays L., var. Dekalb 535, CORN); assay: Pre-emerge test, crop safety; conditions: crop damage rating 0-100, 14 days after application
Summary of the method: (§2)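 Sandy loam pots; pre-emerge: sown 1 d pre-spray, surface-watered after, then bottom-watered. Post-emerge: sown 8–21 d before, 2–3 leaf stage, + 0.25% v/v NIS, bottom-watered. Acetone, 187 l/ha track spray, 15–1000 g ai/ha. 0–100 injury score, day 14.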

[11] = system: upland rice (Oryza sp., var. Tebonnet, RICE); assay: Pre-emerge test, crop safety; conditions: crop damage rating 0-100, 14 days after application
Summary of the method: as §2

[12] = system: barnyardgrass (Echinochloa crus-galli, ECHCG); assay: Post-emerge test, greenhouse herbicide activity screening; conditions: post-emerge, 14 days after application, rating scale 0-100
Summary of the method: (§3)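 Applied at 15–1000 g ai/ha from acetone in 187 l/ha spray volume. Post-emergence applications included 0.25% v/v non-ionic surfactant and reached plants sown 8–21 days before. Pre-emergence applications were incorporated by surface watering. Efficacy or crop damage was rated on a 0–100 scale after 14 days.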

[13] = system: green foxtail (Setaria viridis, SETVI); assay: as above; conditions: post-emerge, 14 days after application, rating scale 0-100
Summary of the method: as §3

[14] = system: ivyleaf morningglory (Ipomoea hederacea, IPOHE); assay: as above; conditions: post-emerge, 14 days after application, rating scale 0-100
Summary of the method: as §3

[15] = system: johnsongrass (Sorghum halepense, SORHA); assay: as above; conditions: post-emerge, 14 days after application, rating scale 0-100
Summary of the method: as §3

[16] = system: lambsquarters (Chenopodium album, CHEAL); assay: as above; conditions: post-emerge, 14 days after application, rating scale 0-100
Summary of the method: as §3

[17] = system: large crabgrass (Digitaria sanguinalis, DIGSA); assay: as above; conditions: post-emerge, 14 days after application, rating scale 0-100
Summary of the method: as §3

[18] = system: redroot pigweed (Amaranthus retroflexus, AMARE); assay: as above; conditions: post-emerge, 14 days after application, rating scale 0-100
Summary of the method: as §3

[19] = system: sicklepod (Cassia obtusifolia, CASOB); assay: as above; conditions: post-emerge, 14 days after application, rating scale 0-100
Summary of the method: as §3

[20] = system: velvetleaf (Abutilon theophrasti, ABUTH); assay: as above; conditions: post-emerge, 14 days after application, rating scale 0-100
Summary of the method: as §3

[21] = system: field corn (Zea mays L., var. Dekalb 535, CORN); assay: Post-emerge test, crop safety; conditions: post-emerge, 14 days after application, rating scale 0-100
Summary of the method: (§4)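 Plants grown in 10 cm pots of sandy loam mix received acetone-dissolved compounds through a moving flat-fan nozzle. Doses ranged from 15 to 1000 g ai/ha. Pre-emerge pots were seeded one day earlier, post-emerge pots 8–21 days earlier. Fourteen days on, each pot was graded 0–100 for damage.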

[22] = system: upland rice (Oryza sp., var. Tebonnet, RICE); assay: Post-emerge test, crop safety; conditions: post-emerge, 14 days after application, rating scale 0-100
Summary of the method: as §4

CCOC(=O)COc1c(Cl)cc(F)c(-n2c(=O)cc(C(F)(F)F)n(C)c2=O)c1NC(=O)c1ccc2ccccc2c1 [2-189]
5: CORN phytotoxicity rating (crop damage) ([21]; 162 g ai/ha) | RICE phytotoxicity rating (crop damage) ([22]; 162 g ai/ha)
100: Pre-emerge Herbicidal Activity CHEAL ([6]; 40.5 g ai/ha) | Pre-emerge Herbicidal Activity CHEAL ([6]; 162 g ai/ha) | Pre-emerge Herbicidal Activity ABUTH ([9]; 162 g ai/ha) | IPOHE phytotoxicity rating ([14]; 162 g ai/ha) | CHEAL phytotoxicity rating ([16]; 40.5 g ai/ha) | CHEAL phytotoxicity rating ([16]; 162 g ai/ha) | AMARE phytotoxicity rating ([18]; 40.5 g ai/ha) | AMARE phytotoxicity rating ([18]; 162 g ai/ha) | ABUTH phytotoxicity rating ([20]; 162 g ai/ha)
85: ABUTH phytotoxicity rating ([20]; 40.5 g ai/ha)
70: Pre-emerge Herbicidal Activity ABUTH ([9]; 40.5 g ai/ha)
10: Pre-emerge Herbicidal Activity CASOB ([8]; 162 g ai/ha) | ECHCG phytotoxicity rating ([12]; 162 g ai/ha)
95: Pre-emerge Herbicidal Activity AMARE ([1]; 40.5 g ai/ha)
90: Pre-emerge Herbicidal Activity AMARE ([1]; 162 g ai/ha)
40: CASOB phytotoxicity rating ([19]; 40.5 g ai/ha)
60: IPOHE phytotoxicity rating ([14]; 40.5 g ai/ha) | CASOB phytotoxicity rating ([19]; 162 g ai/ha)
0: Pre-emerge Herbicidal Activity ECHCG ([2]; 40.5 g ai/ha) | Pre-emerge Herbicidal Activity ECHCG ([2]; 162 g ai/ha) | Pre-emerge Herbicidal Activity SETVI ([3]; 40.5 g ai/ha) | Pre-emerge Herbicidal Activity SETVI ([3]; 162 g ai/ha) | Pre-emerge Herbicidal Activity IPOHE ([4]; 40.5 g ai/ha) | Pre-emerge Herbicidal Activity SORHA ([5]; 40.5 g ai/ha) | Pre-emerge Herbicidal Activity SORHA ([5]; 162 g ai/ha) | Pre-emerge Herbicidal Activity DIGSA ([7]; 40.5 g ai/ha) | Pre-emerge Herbicidal Activity DIGSA ([7]; 162 g ai/ha) | Pre-emerge Herbicidal Activity CASOB ([8]; 40.5 g ai/ha) | Pre-emerge Herbicidal Activity CORN ([10]; 40.5 g ai/ha) | Pre-emerge Herbicidal Activity CORN ([10]; 162 g ai/ha) | Pre-emerge Herbicidal Activity RICE ([11]; 40.5 g ai/ha) | Pre-emerge Herbicidal Activity RICE ([11]; 162 g ai/ha) | ECHCG phytotoxicity rating ([12]; 40.5 g ai/ha) | SETVI phytotoxicity rating ([13]; 40.5 g ai/ha) | SETVI phytotoxicity rating ([13]; 162 g ai/ha) | SORHA phytotoxicity rating ([15]; 40.5 g ai/ha) | SORHA phytotoxicity rating ([15]; 162 g ai/ha) | DIGSA phytotoxicity rating ([17]; 40.5 g ai/ha) | DIGSA phytotoxicity rating ([17]; 162 g ai/ha) | CORN phytotoxicity rating (crop damage) ([21]; 40.5 g ai/ha) | RICE phytotoxicity rating (crop damage) ([22]; 40.5 g ai/ha)
20: Pre-emerge Herbicidal Activity IPOHE ([4]; 162 g ai/ha)

CCOC(=O)COc1c(Cl)cc(F)c(-n2c(=O)cc(C(F)(F)F)n(C)c2=O)c1NC(=O)C=Cc1ccccc1 [2-190]
99: phytotoxicity rating AMARE ([18]; 250 g ai/ha)
50: IPOHE phytotoxicity rating ([14]; 63 g ai/ha) | phytotoxicity rating SORHA ([15]; 250 g ai/ha)
30: Pre-emerge Herbicidal Activity SETVI ([3]; 250 g ai/ha) | Pre-emerge Herbicidal Activity DIGSA ([7]; 250 g ai/ha) | Pre-emerge Herbicidal Activity CASOB ([8]; 63 g ai/ha)
90: Pre-emerge Herbicidal Activity IPOHE ([4]; 250 g ai/ha) | phytotoxicity rating IPOHE ([14]; 250 g ai/ha) | CHEAL phytotoxicity rating ([16]; 63 g ai/ha) | ABUTH phytotoxicity rating ([20]; 63 g ai/ha) | phytotoxicity rating ABUTH ([20]; 250 g ai/ha)
0: Pre-emerge Herbicidal Activity ECHCG ([2]; 63 g ai/ha) | Pre-emerge Herbicidal Activity ECHCG ([2]; 250 g ai/ha) | Pre-emerge Herbicidal Activity SETVI ([3]; 63 g ai/ha) | Pre-emerge Herbicidal Activity IPOHE ([4]; 63 g ai/ha) | Pre-emerge Herbicidal Activity SORHA ([5]; 63 g ai/ha) | Pre-emerge Herbicidal Activity SORHA ([5]; 250 g ai/ha) | Pre-emerge Herbicidal Activity DIGSA ([7]; 63 g ai/ha) | Pre-emerge Herbicidal Activity CORN ([10]; 63 g ai/ha) | Pre-emerge Herbicidal Activity CORN ([10]; 250 g ai/ha) | ECHCG phytotoxicity rating ([12]; 63 g ai/ha) | SETVI phytotoxicity rating ([13]; 63 g ai/ha) | phytotoxicity rating SETVI ([13]; 250 g ai/ha) | SORHA phytotoxicity rating ([15]; 63 g ai/ha) | DIGSA phytotoxicity rating ([17]; 63 g ai/ha) | phytotoxicity rating DIGSA ([17]; 250 g ai/ha) | RICE phytotoxicity rating (crop damage) ([22]; 63 g ai/ha)
100: Pre-emerge Herbicidal Activity AMARE ([1]; 250 g ai/ha) | Pre-emerge Herbicidal Activity CHEAL ([6]; 63 g ai/ha) | Pre-emerge Herbicidal Activity CHEAL ([6]; 250 g ai/ha) | Pre-emerge Herbicidal Activity ABUTH ([9]; 63 g ai/ha) | Pre-emerge Herbicidal Activity ABUTH ([9]; 250 g ai/ha) | phytotoxicity rating CHEAL ([16]; 250 g ai/ha)
70: Pre-emerge Herbicidal Activity CASOB ([8]; 250 g ai/ha)
95: Pre-emerge Herbicidal Activity AMARE ([1]; 63 g ai/ha) | AMARE phytotoxicity rating ([18]; 63 g ai/ha)
20: Pre-emerge Herbicidal Activity RICE ([11]; 250 g ai/ha) | CASOB phytotoxicity rating ([19]; 63 g ai/ha)
10: Pre-emerge Herbicidal Activity RICE ([11]; 63 g ai/ha) | phytotoxicity rating ECHCG ([12]; 250 g ai/ha) | phytotoxicity rating CORN (crop damage) ([21]; 250 g ai/ha)
80: phytotoxicity rating CASOB ([19]; 250 g ai/ha)
5: CORN phytotoxicity rating (crop damage) ([21]; 63 g ai/ha) | phytotoxicity rating RICE (crop damage) ([22]; 250 g ai/ha)
